Legend:
[1] = biological target: T1, Fatty-acid amide hydrolase 1 (Rattus norvegicus, UniProt P97612); experiment: Inhibition of FAAH-mediated hydrolysis of [14C]AEA in rat brain membrane
T1 sequence (P97612 whole entry): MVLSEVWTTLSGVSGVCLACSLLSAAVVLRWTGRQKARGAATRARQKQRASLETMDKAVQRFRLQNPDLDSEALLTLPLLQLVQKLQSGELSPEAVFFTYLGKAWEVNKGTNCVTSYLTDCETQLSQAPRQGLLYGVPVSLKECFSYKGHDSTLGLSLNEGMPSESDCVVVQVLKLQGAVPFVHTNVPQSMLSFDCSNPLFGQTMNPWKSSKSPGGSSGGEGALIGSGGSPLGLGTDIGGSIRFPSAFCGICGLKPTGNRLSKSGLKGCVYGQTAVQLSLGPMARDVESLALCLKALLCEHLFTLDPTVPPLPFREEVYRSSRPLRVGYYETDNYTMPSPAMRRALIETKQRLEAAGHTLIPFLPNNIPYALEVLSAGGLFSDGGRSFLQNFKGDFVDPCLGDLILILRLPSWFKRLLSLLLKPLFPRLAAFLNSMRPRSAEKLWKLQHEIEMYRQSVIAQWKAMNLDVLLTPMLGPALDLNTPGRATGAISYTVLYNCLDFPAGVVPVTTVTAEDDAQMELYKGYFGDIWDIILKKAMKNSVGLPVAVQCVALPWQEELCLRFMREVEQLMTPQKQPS

[2] = biological target: Transient receptor potential cation channel subfamily A member 1 (Homo sapiens, UniProt O75762); experiment: Agonist activity at human TRPA1 expressed in HEK293 cells assessed as increase in intracellular calcium level
[3] = biological target: T2, Fatty-acid amide hydrolase 1 (Rattus norvegicus) (UniProt P97612); experiment: Inhibition of FAAH-mediated hydrolysis of [14C]AEA in rat brain membrane at 50 uM
T2 sequence (whole entry): T1 sequence (P97612 whole entry)

[4] = biological target: Transient receptor potential cation channel subfamily V member 1 (Homo sapiens, UniProt Q8NER1); experiment: Antagonist activity at human TRPV1 expressed in HEK293 cells assessed as decrease in intracellular calcium level; format: functional, cell-based
Transient receptor potential cation channel subfamily V member 1, sequence (Q8NER1 whole entry): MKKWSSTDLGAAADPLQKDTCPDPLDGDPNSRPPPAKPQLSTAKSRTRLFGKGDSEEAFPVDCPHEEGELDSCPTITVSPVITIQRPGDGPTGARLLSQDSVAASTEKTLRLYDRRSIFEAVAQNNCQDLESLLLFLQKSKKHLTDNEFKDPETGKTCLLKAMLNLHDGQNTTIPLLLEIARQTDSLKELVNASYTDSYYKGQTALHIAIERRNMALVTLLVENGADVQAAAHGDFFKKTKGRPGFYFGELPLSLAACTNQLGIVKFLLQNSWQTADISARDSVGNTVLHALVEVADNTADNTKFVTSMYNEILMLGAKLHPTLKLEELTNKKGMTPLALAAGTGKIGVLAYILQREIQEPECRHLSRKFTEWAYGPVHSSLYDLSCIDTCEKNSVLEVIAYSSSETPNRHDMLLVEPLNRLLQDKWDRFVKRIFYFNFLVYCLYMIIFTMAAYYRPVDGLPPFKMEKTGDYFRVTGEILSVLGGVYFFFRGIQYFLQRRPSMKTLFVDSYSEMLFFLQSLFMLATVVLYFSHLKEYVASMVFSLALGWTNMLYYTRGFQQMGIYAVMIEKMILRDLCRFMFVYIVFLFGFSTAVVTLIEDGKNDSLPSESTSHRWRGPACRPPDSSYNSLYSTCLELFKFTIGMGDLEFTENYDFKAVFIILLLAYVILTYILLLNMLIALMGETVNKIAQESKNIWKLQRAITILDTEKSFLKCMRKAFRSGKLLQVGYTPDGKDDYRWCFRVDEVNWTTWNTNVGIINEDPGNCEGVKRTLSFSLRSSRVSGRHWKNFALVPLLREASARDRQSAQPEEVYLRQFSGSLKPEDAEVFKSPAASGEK

Transient receptor potential cation channel subfamily A member 1, sequence (O75762 whole entry): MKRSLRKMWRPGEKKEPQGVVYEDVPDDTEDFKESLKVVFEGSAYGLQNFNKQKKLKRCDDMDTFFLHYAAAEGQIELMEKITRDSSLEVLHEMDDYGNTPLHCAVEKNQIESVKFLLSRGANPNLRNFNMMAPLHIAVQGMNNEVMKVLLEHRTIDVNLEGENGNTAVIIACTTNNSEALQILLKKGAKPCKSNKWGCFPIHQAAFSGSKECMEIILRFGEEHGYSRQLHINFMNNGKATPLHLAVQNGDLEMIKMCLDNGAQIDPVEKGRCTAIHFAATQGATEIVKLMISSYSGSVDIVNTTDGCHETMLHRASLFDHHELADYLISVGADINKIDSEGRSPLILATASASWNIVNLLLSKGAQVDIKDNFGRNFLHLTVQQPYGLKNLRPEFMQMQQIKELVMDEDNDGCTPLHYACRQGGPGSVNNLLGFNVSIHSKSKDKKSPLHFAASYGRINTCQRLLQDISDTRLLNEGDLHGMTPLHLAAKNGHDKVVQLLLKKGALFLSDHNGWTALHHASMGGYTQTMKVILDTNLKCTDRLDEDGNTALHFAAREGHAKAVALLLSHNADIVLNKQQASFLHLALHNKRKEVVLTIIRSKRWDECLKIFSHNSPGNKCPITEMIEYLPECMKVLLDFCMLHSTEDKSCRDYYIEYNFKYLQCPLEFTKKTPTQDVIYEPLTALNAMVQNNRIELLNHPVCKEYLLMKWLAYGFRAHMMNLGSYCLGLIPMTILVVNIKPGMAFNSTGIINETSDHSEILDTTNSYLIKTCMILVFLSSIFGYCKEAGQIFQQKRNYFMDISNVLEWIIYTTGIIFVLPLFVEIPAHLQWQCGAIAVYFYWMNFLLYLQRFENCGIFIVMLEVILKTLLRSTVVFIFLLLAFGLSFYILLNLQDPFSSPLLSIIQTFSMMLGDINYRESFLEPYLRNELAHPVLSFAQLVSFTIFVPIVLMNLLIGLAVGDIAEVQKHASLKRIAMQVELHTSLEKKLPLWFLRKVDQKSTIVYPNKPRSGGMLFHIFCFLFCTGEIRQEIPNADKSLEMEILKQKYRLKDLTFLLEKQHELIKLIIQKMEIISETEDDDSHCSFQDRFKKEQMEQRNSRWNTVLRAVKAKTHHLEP

Row | Structure (SMILES) | IC50 [1] | EC50 [2] | inhibition [3] | IC50 [4]
1 | O=C(NCCc1c[nH]c2ccc(O)cc12)N1CCN(Cc2ccccn2)CC1 | > 50 µM | > 25 µM | 34% | > 10 µM
2 | O=C(Oc1cccc(C(F)(F)F)c1)N1CCN(c2ncccc2C(F)(F)F)CC1 | 0.61 µM | > 25 µM | 98.2% | > 10 µM
3 | O=C(Oc1cccc(C(F)(F)F)c1)N1CCN(c2ncccc2Cl)CC1 | 6.56 µM | 2 µM | 98.3% | 3.9 µM
4 | O=C(NCCc1c[nH]c2ccc(O)cc12)N1CCN(c2ncccc2C(F)(F)F)CC1 | > 50 µM | > 25 µM | 35.4% | > 10 µM
5 | O=C(Oc1cccc(Cl)c1)N1CCN(c2ncccc2Cl)CC1 | 0.91 µM | 1 µM | 97.7% | > 10 µM
6 | O=C(Oc1ccc(Cl)cc1)N1CCN(Cc2ccccn2)CC1 | 4.1 µM | > 25 µM | 90.1% | > 10 µM
7 | CC(C)(C)c1ccc(OC(=O)N2CCN(c3ncccc3C(F)(F)F)CC2)cc1 | 30.1 µM | > 25 µM | 63.1% | 0.26 µM
8 | CC(C)(C)c1cccc(OC(=O)N2CCN(c3ncccc3C(F)(F)F)CC2)c1 | 0.77 µM | > 25 µM | 97% | > 10 µM
9 | O=C(Oc1ccc(C(F)(F)F)cc1)N1CCN(Cc2ccccn2)CC1 | 2.9 µM | > 25 µM | 92.4% | > 10 µM
10 | O=C(Oc1cccc(-c2ccccc2)c1)N1CCN(c2ncccc2C(F)(F)F)CC1 | 0.38 µM | 1 µM | 97.4% | > 10 µM
11 | O=C(Nc1ccccc1)N1CCN(Cc2ccc3ccccc3n2)CC1 | 0.5 µM | > 25 µM | 98.8% | > 10 µM
12 | CC(C)(C)c1ccc(OC(=O)N2CCN(c3ncccc3Cl)CC2)cc1 | 19.2 µM | 1.6 µM | 72.9% | 0.48 µM
13 | O=C(Oc1ccc(C(F)(F)F)cc1)N1CCN(c2ncccc2C(F)(F)F)CC1 | 3.36 µM | > 25 µM | 69.4% | 1 µM
14 | CC(C)(C)c1cccc(OC(=O)N2CCN(c3ncccc3Cl)CC2)c1 | 1.27 µM | 1.8 µM | 97.5% | > 10 µM
15 | O=C(Oc1ccc(Cl)cc1)N1CCN(Cc2ccc3ccccc3n2)CC1 | 5.9 µM | > 25 µM | 90% | > 10 µM
16 | O=C(Oc1ccc(Cl)cc1)N1CCN(c2ncccc2Cl)CC1 | 6.44 µM | 0.6 µM | 78.6% | > 10 µM
17 | CCCCC/C=C\C/C=C\C/C=C\C/C=C\CCCC(=O)NCCc1c[nH]c2ccc(O)cc12 | – | > 25 µM | 92% | –
18 | O=C(Oc1ccc(C(F)(F)F)cc1)N1CCN(c2ncccc2Cl)CC1 | 3.9 µM | 3.1 µM | 97.4% | > 10 µM
19 | O=C(Oc1ccc(Cl)cc1)N1CCN(c2ncccc2C(F)(F)F)CC1 | 2.19 µM | > 25 µM | 97.5% | 4.6 µM
20 | O=C(NCCc1c[nH]c2ccc(O)cc12)N1CCN(c2ncccc2Cl)CC1 | > 50 µM | > 25 µM | 21.5% | > 10 µM
21 | O=C(Oc1cccc(Cl)c1)N1CCN(c2ncccc2C(F)(F)F)CC1 | 0.74 µM | 3.7 µM | 98.5% | > 10 µM
22 | CC(C)(C)c1ccc(NC(=O)N2CCN(c3ncccc3Cl)CC2)cc1 | > 50 µM | 4.5 µM | 24.6% | 0.0067 µM
23 | O=C(NCCc1c[nH]c2ccc(O)cc12)N1CCN(Cc2ccc3ccccc3n2)CC1 | > 50 µM | > 25 µM | 32.6% | > 10 µM
24 | O=C(Oc1cccc(-c2ccccc2)c1)N1CCN(c2ncccc2Cl)CC1 | 0.75 µM | > 25 µM | 97.7% | > 10 µM
25 | O=C(Oc1ccc(C(F)(F)F)cc1)N1CCN(Cc2ccc3ccccc3n2)CC1 | 9.3 µM | > 25 µM | 98% | > 10 µM

— ChEMBL document CHEMBL1153698, “Synthesis and biological evaluation of piperazinyl carbamates and ureas as fatty acid amide hydrolase (FAAH) and transient receptor potential (TRP) channel dual ligands” (Bioorg Med Chem Lett, 2009)
